Assay results reported in US8883856B2, “Compositions and methods for the treatment of inflammatory diseases using topoisomerase inhibitors” (priority 2000, dated 2014).
Like-named read-outs stand apart in the source and are kept apart here.

Columns and labels:
[1] = tested on: surgical adhesions; type: in vivo; conditions: for mean surgical adhesion score: 2.5% loaded crosslinked HA film, 8 days, scale 0 (no adhesions) to 3 (inseparable without cutting), control film mean 2.33; for surgical adhesion formation, in words: drug-loaded crosslinked HA films (camptothecin 2.5%, doxorubicin 2.5%, beta-lapachone 5%, curcumin 10%)
Description: The rat caecal-sidewall adhesion model was used to test efficacy of crosslinked hyaluroinc acid (HA) polymeric films loaded with one of the following compounds; camptothecin 2.5% loading (w/w to polymer), curcumin 10%, doxorubicin 2.5%, beta-lapachone at 5% or unloaded-no-drug control. Films of 2-2.5 cm^2 were prepared with each drug by the method described in example 10. ETO sterilized, and divided in half at the time of surgical implantation. Sham surgeries omitted the application of HA film as separate controls.
Sprague Dawley rats, 15 male and 15 female, weighing 250-400 g were anaesthetized with Halothane (5%) and maintained, by nose cone, on 1.5-2% Halothane. Surgeries were conducted under sterile conditions. The abdomen was shaved, scrubbed with an antiseptic wash, and opened at the linea alba with a 3 cm incision. A region of the abdominal cavity immediately opposite the large bowel was isolated with bowel clamps, and a #11 scalpel blade was used to score a section of the transversus muscle, describing a rectangle 1×1.5 cm. The muscle was stripped from the peritoneal sidewall with forceps, and minor bleeding was arrested by tamponade. The large bowel was then externalized with sterile swabs, and caecal contents evacuated into the large bowel. Both surfaces of the caecum were stroked, 45 times on each side, with a #10 scalpel blade to produce erythema and punctated bleeding. Each stroke spanned the caecal diameter (approximately 1 cm), and extended along 1.5 cm of the caecal extremity. In only one case did this abrasion procedure cause sustained bleeding requiring ligation. Following 90 blade strokes, the integrity of the tissue was confirmed, and caecum and large bowel were replaced in the pelvis.
The film was laid over the rectangular sidewall abrasion (except in the case of sham surgeries), covering the area of damaged tissue. The abraded caecum, relocated in its previous orientation, was than overlaid such that the entire sidewall wound and film were covered by it. Four tacking sutures were placed at the outer extremities of the abraded area of the caecum securing it to the intact peritoneal sidewall immediately outside the rectangular wound area. The abdomen was closed in two layers, and antibiotics administered intramuscularly before the animal regained consciousness.
. Adhesions over, and adjacent to the caecum were rated according to the following findings: 0: No adhesions connecting caecum to sidewall wound; 1: Filmy or stranded were separable by blunt dissection; 2: Cohesive adhesions attaching the caecum to the sidewall were separable by aggressive blunt dissection; 3: Adhesions inseparable without cutting, or without tearing/damaging caecum. Fractions were assigned where a variety of ratings seemed applicable.

[2] = tested on: collagenase gene; assay: IL-1 induced collagenase gene expression in chondrocytes; type: cell-based, calf
Source text: This assay measures the levels of RNA for the two metalloproteinases, collagenase and stromelysin. Over-expression of these genes results in excessive synthesis and secretion of these two enzymes from articular chondrocytes and may represent part of the pathophysiology of rheumatoid arthritis. Agents that inhibit over-expression of collagenase and stromelysin can be antiarthritc agents. […] Proteoglycan gene expression is part of the normal physiology of chondrocytes.
Primary chondrocyte culture was freshly isolated from calf cartilage. The cells were plated (at 2.5×10^6/mL) in 100×20 mm culture dishes and incubated in Ham's F12 medium containing 5% fetal bovine serum (FBS) overnight at 37° C. The cells were starved with serum-free medium overnight. […] Then IL-1 (20 ng/mL) was added to each plate and the plates were incubated for an additional 18 hours. Total RNA was isolated by the acidified guanidine isothiocyanate method and subjected to electrophoresis on a denatured gel. Denatured RNA samples (15 ug) were analyzed by gel electrophoresis in a 1% denaturing gel, transferred to a nylon membrane, and hybridized respectively with the ^32P-labelled collagenase cDNA probe, ^32P-labelled stromelycin cDNA probe, ^32P-labelled proteoglycan cDNA probe and ^32P-labelled glyceraldehyde phosphate dehydrogenase (PAGDH) cDNA. The PAGDH levels acted as an internal standard to ensure roughly equal loading. The experimental results on X-ray films were scanned and analyzed with HP ScanJet.

[3] = tested on: smooth muscle cells (A7r5 rat embryonic thoracic aorta); assay: MTT proliferation/cytotoxicity assay, smooth muscle cells; type: cell-based; conditions: read-out: inhibitory concentration that gave 50% effect on proliferation (IC50), smooth muscle cells
Description: (§1) Proliferation was determined using the MTT proliferation/cytotoxicity assay.
(§2) On day one, 1500-2000 smooth muscle cells (A7r5 rat embryonic thoracic aorta) or synoviocytes (HIG.82 rabbit) were plated per well on a 96-well plate, leaving the first column free of cells (blank). The plate was placed back into the 37° C., CO2 incubator. The following day camptothecin was added at various concentrations. No drugs were added to the first column (blank) and the second column (untreated column) for control. The cells were exposed for 24, 48, and 72 hours. At the end of the exposure period, 50 μl of dimethylthiazol diphenyltetrazolium bromide salt (MTT) dissolved in media was added and allowed to incubate for 4 hours at 37° C. The medium was then aspirated and 200 μl of dimethyl sulfoxide was added. The plate was agitated for 30 minutes and the absorbance read at 562 nm. The optical density measurement was converted to number of cells using a standard plot of optical density with known number of cells and cell viability was expressed as % growth (this value is the % of the control cells).

[4] = tested on: synoviocytes (HIG.82 rabbit); assay: MTT proliferation/cytotoxicity assay, synoviocytes; type: cell-based; conditions: Oryctolagus cuniculus, read-out: inhibitory concentration that gave 50% effect on proliferation (IC50), synoviocytes
Description: as §1, §2

| Structure (SMILES) | toxicity of drug-loaded hyaluronic acid films ([1]; rat, in vivo) | IL-1 induced collagenase gene expression ([2]; 1×10^−5 M) | IC50 ([3]; A7R5, 48 hours exposure) [µM] | IC50 ([4]; 48 hours exposure) [µM] | mean surgical adhesion score [1] | toxicity of drug-loaded hyaluronic acid films ([1]; films applied to abraded surgical site, rats) | IL-1 induced collagenase gene expression ([2]; 1×10^−7 M) | IC50 ([3]; A7R5, 48 h) [µM] | IC50 ([4]; 48 h) [µM] | surgical adhesion formation, in words ([1]; rats) | surgical adhesion formation, in words ([1]; rats, listed as dodxorubicin) |
| --- | --- | --- | --- | --- | --- | --- | --- | --- | --- | --- | --- |
| CC1(C)CCC2=C(O1)c1ccccc1C(=O)C2=O [beta-lapachone] | did not induce any toxic side effects | almost completely inhibited | 6.3 | 5.6 |  |  |  |  |  |  |  |
| CC[C@@]1(O)C(=O)OCc2c1cc1n(c2=O)Cc2cc3ccccc3nc2-1 [camptothecin] |  |  |  |  | 0.95 | no associated toxicity | almost completely inhibited | 1.6 | 0.065 |  |  |
| COc1cccc2c1C(=O)c1c(O)c3c(c(O)c1C2=O)C[C@@](O)(C(=O)CO)C[C@@H]3O[C@H]1C[C@H](N)[C@H](O)[C@H](C)O1 [doxorubicin] | did not induce any toxic side effects | completely inhibited | 0.6 | 0.1 | 1.24 |  |  |  |  | inhibition of adhesion formation occurs | major inhibition of surgical adhesion formation |
| COc1cc([C@@H]2c3cc4c(cc3[C@@H](O[C@@H]3O[C@@H]5CO[C@@H](C)O[C@H]5[C@H](O)[C@H]3O)[C@H]3COC(=O)[C@H]23)OCO4)cc(OC)c1O [etoposide] | did not induce any toxic side effects | inhibited | ~15 | ~15 |  |  |  |  |  | inhibition of adhesion formation occurs |  |
| CC1=CC(=O)c2ccccc2C1=O [menadione] |  | inhibited | 8.2 | 15 |  |  |  |  |  |  |  |
| CC1=CC(=O)c2c(O)cccc2C1=O [plumbagin] |  | completely inhibited | 2.6 | 3.6 |  |  |  |  |  |  |  |
